Assay results reported in US6723364B1, “Fog treatment method using a liquid composition for treating fruits and vegetables and implementing device” (Xeda International, priority 1998, dated 2004).
Converted amounts (≈) assume the structure as drawn.

How the values were obtained:
Erwinia carotovora = assay: Bactericidal activity in vitro in LB agar medium; type: cell-based; conditions: 28° C.; for MIC: Pectobacterium carotovorum, Erwinia sp., read-out: MIC (concentration needed to completely inhibit the growth of the bacteria)
Method: (§1) The bactericidal activity of eugenol and isoeugenol was evaluated in vitro and compared with that of other terpenes.
(§2) The culture medium used is the following LB medium:
(§3) Bactotryptone: 1% by weight
(§4) Yeast extract: 0.5% by weight
(§5) A suspension of bacteria at 10^6 CFU/ml was prepared in sterilized water from the LB medium. 200 μl of this bacterial suspension were added to 20 ml of presterilized LB culture medium brought to 55° C. The tested terpene is then added to the culture medium. After agitation, the medium is immediately divided among Petri dishes. The medium solidifies on cooling.
(§6) Incubation is carried out at 28° C. when the bacterium is Erwinia carotovora and at 37° C. when the bacterium is Escherichia coli.
(§7) The growth of mould in the culture medium is observed. The same experiment is carried out in the absence of terpene (control experiment).
The results are evaluated using the following assessment scale:
++: mould growth identical to the control
+: mould present with a marked reduction in growth with respect to the control
: complete absence of growth.
The results obtained for 3 different concentrations, namely 20, 80 and 320 μg/ml, in the case of the bacterium Erwinia carotovora are summarized in Table 7.
(§8) The protocol used is that described above.

Penicillium digitatum = assay: Fungicidal activity in vitro: mycelial growth on Cristomalt agar; type: cell-based; conditions: PD; for Inhibition grades: MIC expressed on the scale of Table 2; for MIC: Penicillium digitatum, min-max range of several experiments, 22° C., read-out: MIC (content giving complete inhibition of mycelial growth)
Method: (§9) The Cristomalt medium used for the evaluations of the fungicidal activities comprises 0.1% of Cristomalt (malt extract) and 0.2% of agar.
(§10) This culture medium is, after sterilization, brought to 55° C. The terpene compound tested is then introduced in the pure form into the culture medium under warm conditions. Immediately after agitating, the medium, enriched with the terpene product, is poured into Petri dishes (diameter 9 cm, filled with 20 ml of medium). The agar-comprising medium solidifies on cooling. The Petri dishes are then inoculated with plugs, with a diameter of 6 mm, withdrawn from the edge of a culture of the tested fungus, which culture is obtained on Cristomalt medium.
(§11) Inoculation is carried out at 22° C.
(§12) The mycelial growth was determined periodically (5 to 15 days, according to the species of fungus).
(§13) The results are expressed in Table 3 below in terms of MIC, which is the content (in μg/ml) which makes it possible to obtain complete inhibition of mycelial growth.
(§14) In f act, each experiment was carried out several times, so that, for each terpene and for each species of fungus, a minimum value and a maximum value were obtained.

Fusarium oxysporum = assay: as above; type: cell-based; conditions: for MIC: Fusarium oxysporum, FO, min-max range of several experiments, 22° C., read-out: MIC (content giving complete inhibition of mycelial growth); for Inhibition grades: OF, MIC expressed on the scale of Table 2
Method: as §9, §10, §11, §12, §13, §14

Botrytis cinerea = assay: as above; type: cell-based; conditions: BC; for Inhibition grades: MIC expressed on the scale of Table 2; for MIC: Botrytis cinerea, min-max range of several experiments, 22° C., read-out: MIC (content giving complete inhibition of mycelial growth)
Method: as §9, §10, §11, §12, §13, §14

Phytophtora parasitica = assay: as above; type: cell-based; conditions: PhP; for Inhibition grades: MIC expressed on the scale of Table 2; for MIC: min-max range of several experiments, 22° C., read-out: MIC (content giving complete inhibition of mycelial growth)
Method: as §9, §10, §11, §12, §13, §14

Geocrichum candidum = assay: as above; type: cell-based; conditions: GC; for Inhibition grades: MIC expressed on the scale of Table 2; for MIC: min-max range of several experiments, 22° C., read-out: MIC (content giving complete inhibition of mycelial growth)
Method: as §9, §10, §11, §12, §13, §14

Gliocladium roseum = assay: as above; type: cell-based; conditions: GR; for MIC: Clonostachys rosea, min-max range of several experiments, 22° C., read-out: MIC (content giving complete inhibition of mycelial growth); for Inhibition grades: MIC expressed on the scale of Table 2
Method: as §9, §10, §11, §12, §13, §14

Alternaria alternata = assay: as above; type: cell-based; conditions: AA; for Inhibition grades: MIC expressed on the scale of Table 2; for MIC: Alternaria alternata, min-max range of several experiments, 22° C., read-out: MIC (content giving complete inhibition of mycelial growth)
Method: as §9, §10, §11, §12, §13, §14

[1] = system: Phlyctaena vagabonda (“Gloeosporium”); assay: as above; type: cell-based; conditions: PV; for Inhibition grades: MIC expressed on the scale of Table 2; for MIC: min-max range of several experiments, 22° C., read-out: MIC (content giving complete inhibition of mycelial growth)
Method: as §9, §10, §11, §12, §13, §14

Penicillium expansum = assay: as above; type: cell-based; conditions: PE; for Inhibition grades: MIC expressed on the scale of Table 2; for MIC: Penicillium expansum, min-max range of several experiments, 22° C., read-out: MIC (content giving complete inhibition of mycelial growth)
Method: as §9, §10, §11, §12, §13, §14

Escherichia coli = assay: Bactericidal activity in vitro in LB agar medium; type: cell-based; conditions: Escherichia sp., 37° C., read-out: MIC (concentration needed to completely inhibit the growth of the bacteria)
Method: as §1, §2, §3, §4, §5, §6, §7, §8

potato tubers = assay: Sprouting-inhibiting treatment of potato tubers by thermal fogging; type: in vivo; conditions: after 5 months; cold room 8 to 9° C.; 45 g/tonne then 15 g/tonne every 20 days by thermal fogging
Method: The effectiveness of eugenol and of isoeugenol in the sprouting-inhibiting treatment of potato tubers was evaluated and compared with that of other terpenes.
The following compositions were used in the case of eucalyptol, eugenol, isoeugenol, limonene, safrole and terpineol:
60% by weight of terpene;
7% by weight of a nonionic emulsifier;
33% by weight of butyl acetate.
In the case of L-carvone, the following composition was employed:
30% by weight of L-carvone;
10% by weight of ethanol;
5% by weight of nonionic emulsifier;
35% by weight of propylene glycol.
Isopropyl chlorophenylcarbamate (CIPC) is a compound used in the art as sprouting inhibitor for potato tubers. Its activity was compared with that of eugenol and of isoeugenol.
The composition based on isopropyl chloro-phenylcarbamate has the following formulation: […]
20% by weight of isopropyl chlorophenyl-carbamate;
50% by weight of propylene glycol;
10% by weight of nonionic emulsifier;
Each of the compositions tested was applied by thermal fogging. The temperature at the outlet of the thermal fogging device was 240° C., except in the case of the compositions based on L-carvone and on CIPC, where it was 180° C.
The amount of composition which has to be applied is calculated in each case so as to obtain an equivalent concentration of active material on the potato tubers.
In this example, repeated applications were carried out by following the following protocol:
45 g/tonne of tubers at the beginning of storage;
15 g/tonne of tubers every 20 days; so that, after 6 months, 165 g of active principle have been applied per tonne of tubers.
During storage, the tubers were stored in a cold room at a temperature of 8 to 9° C.

SMILES	growth in the culture medium with respect to the control (Erwinia carotovora; Concentration 20 μg/ml)	growth in the culture medium with respect to the control (Erwinia carotovora; Concentration 80 μg/ml)	growth in the culture medium with respect to the control (Erwinia carotovora; Concentration 320 μg/ml)	MIC (Erwinia carotovora) [µg/mL]	Inhibition grades (Penicillium digitatum)	MIC (Penicillium digitatum) [µg/mL]	MIC (Fusarium oxysporum) [µg/mL]	Inhibition grades (Fusarium oxysporum)	Inhibition grades (Botrytis cinerea)	MIC (Botrytis cinerea) [µg/mL]	Inhibition grades (Phytophtora parasitica)	MIC (Phytophtora parasitica) [µg/mL]	Inhibition grades (Geocrichum candidum)	MIC (Geocrichum candidum) [µg/mL]	MIC (Gliocladium roseum) [µg/mL]	Inhibition grades (Gliocladium roseum)	Inhibition grades (Alternaria alternata)	MIC (Alternaria alternata) [µg/mL]	Inhibition grades [1]	MIC [1] [µg/mL]	other results
C=C(C)C1CC=C(C)C(=O)C1 (centres unmarked) [CARVONE, carvone]	++	+	−	80 to 160 (≈ 533 to 1070 µM)	6 (40-80)	40 to 80 (≈ 266 to 533 µM)	40 to 80 (≈ 266 to 533 µM)	6 (40-80)	7 (20-40)	20 to 40 (≈ 133 to 266 µM)	6 (40-80)	40 to 80 (≈ 266 to 533 µM)	5 (80-160)	80 to 160 (≈ 533 to 1070 µM)	40 to 80 (≈ 266 to 533 µM)	6 (40-80)	6 (40-80)	40 to 80 (≈ 266 to 533 µM)	5 (80-160)	80 to 160 (≈ 533 to 1070 µM)	Inhibition grades (Penicillium expansum): 5 (80-160); MIC (Penicillium expansum): 80 to 160 µg/mL (≈ 533 to 1070 µM); MIC (Escherichia coli): 320 to 640 µg/mL (≈ 2130 to 4260 µM)
CC12CCC(CC1)C(C)(C)O2 [EUCALYPTOL, eucalyptol]	++	++	++	320 to 640 (≈ 2070 to 4150 µM)	1 (>1280)	> 1280	640 to 1280 (≈ 4150 to 8300 µM)	2 (640-1280)	2 (640-1280)	640 to 1280 (≈ 4150 to 8300 µM)	3 (320-640)	320 to 640 (≈ 2070 to 4150 µM)	3 (320-640)	320 to 640 (≈ 2070 to 4150 µM)	320 to 640 (≈ 2070 to 4150 µM)	3 (320-640)	1 (>1280)	> 1280	4 (160-320)	160 to 320 (≈ 1040 to 2070 µM)	Inhibition grades (Penicillium expansum): 1 (>1280); MIC (Penicillium expansum): > 1280 µg/mL; MIC (Escherichia coli): > 640 µg/mL; Loss in weight of the tubers (potato tubers): 3.2%; Total weight of the sprouts >2 mm (potato tubers): 46.2 g; Tubers at the white point stage (potato tubers): 10.2%; Tubers with sprouts 2 to 5 mm (potato tubers): 36.3%; Tubers with sprouts <2 mm (potato tubers): 26.7%; Tubers with sprouts >2 mm (potato tubers): 58.4%; Tubers with sprouts >5 mm (potato tubers): 22.4%; Unsprouted tubers (potato tubers): 4.4%
C=CCc1ccc(O)c(OC)c1 [EUGENOL, eugenol]	+	−	−	20 to 40 (≈ 122 to 244 µM)	7 (20-40)	20 to 40 (≈ 122 to 244 µM)	20 to 40 (≈ 122 to 244 µM)	7 (20-40)	7 (20-40)	20 to 40 (≈ 122 to 244 µM)	7 (20-40)	20 to 40 (≈ 122 to 244 µM)	8 (10-20)	10 to 20 (≈ 60.9 to 122 µM)	20 to 40 (≈ 122 to 244 µM)	7 (20-40)	7 (20-40)	20 to 40 (≈ 122 to 244 µM)	6 (40-80)	40 to 80 (≈ 244 to 487 µM)	Inhibition grades (Penicillium expansum): 7 (20-40); MIC (Penicillium expansum): 20 to 40 µg/mL (≈ 122 to 244 µM); MIC (Escherichia coli): 40 to 80 µg/mL (≈ 244 to 487 µM); Loss in weight of the tubers (potato tubers): 2.6%; Total weight of the sprouts >2 mm (potato tubers): 3.6 g; Tubers at the white point stage (potato tubers): 45.3%; Tubers with sprouts 2 to 5 mm (potato tubers): 6.2%; Tubers with sprouts <2 mm (potato tubers): 35.2%; Tubers with sprouts >2 mm (potato tubers): 12.0%; Tubers with sprouts >5 mm (potato tubers): 5.8%; Unsprouted tubers (potato tubers): 7.5%
CC=Cc1ccc(O)c(OC)c1 [ISOEUGENOL, isoeugenol]	+	−	−	20 to 40 (≈ 122 to 244 µM)	7 (20-40)	20 to 40 (≈ 122 to 244 µM)	20 to 40 (≈ 122 to 244 µM)	7 (20-40)	7 (20-40)	20 to 40 (≈ 122 to 244 µM)	7 (20-40)	20 to 40 (≈ 122 to 244 µM)	8 (10-20)	10 to 20 (≈ 60.9 to 122 µM)	20 to 40 (≈ 122 to 244 µM)	7 (20-40)	7 (20-40)	20 to 40 (≈ 122 to 244 µM)	7 (20-40)	20 to 40 (≈ 122 to 244 µM)	Inhibition grades (Penicillium expansum): 7 (20-40); MIC (Penicillium expansum): 20 to 40 µg/mL (≈ 122 to 244 µM); MIC (Escherichia coli): 40 to 80 µg/mL (≈ 244 to 487 µM); Loss in weight of the tubers (potato tubers): 2.7%; Total weight of the sprouts >2 mm (potato tubers): 8.5 g; Tubers at the white point stage (potato tubers): 22.6%; Tubers with sprouts 2 to 5 mm (potato tubers): 10.6%; Tubers with sprouts <2 mm (potato tubers): 56.8%; Tubers with sprouts >2 mm (potato tubers): 14.4%; Tubers with sprouts >5 mm (potato tubers): 3.8%; Unsprouted tubers (potato tubers): 6.2%
